According to patent publication US20240425583A1, “METHODS AND COMPOSITIONS RELATED TO MCL-1 AND BIM HETERODIMER ANTIBODIES” (priority 2021, published 2024):

Tests used:
BCL2:BIM complex [1] = molecular target: T1, BCL2:BIM complex (Homo sapiens, UniProt P10415); test: PRIMAB intra-cellular immunofluorescent staining and flow cytometry in U2932 cells (FIG. 19); assay type: cell-based; parameters: endogenous in cells; host or cells: U2932; settings: BCL2 primed U2932 cells
From the text: These shifts match BH3 mimetic selectivity.

BCL2:BIM complex [2] = molecular target: T1, BCL2:BIM complex; test: Flow cytometry of BH3 mimetic treated cells, heterodimer-specific vs monomer antibodies (FIG. 17); assay type: cell-based; parameters: endogenous in cells; settings: detected with 2H3 (BCL2:BIM) and F05 (MCL-1:BIM)
Experimental: This shift is detected by MCL-1:BIM specific antibody (F05) relative to total MCL-1 in the cell. In this experiment, cells are treated with specific BCL2 targeted BH3 mimetic (AZD4320, Medchemexpress), fixed, permeabilized, and stained with heterodimer-specific antibodies and standard antibodies against monomers. Signals are measured on FLOW Cytometer, show relative signal and the data shown in FIG. 17 is a ratio of complex/monomer signal. FIG. 17 is a graph showing a BCL2:BIM complex specific antibody that tracts with complex disruption by a BH3 mimetic.

Mcl-1:Bim complex [3] = test: Heterodimer to monomer ratio by flow cytometry in SET2 cells (FIG. 18); assay type: cell-based; settings: A1155463 treated SET2 cells, detected with F05
Experimental: (§1) FIG. 18 is a graph showing a ratio of measured heterodimer to monomer in Bcl-xL dependent cell lines: Bcl-2:Bim, Mcl-1:Bim, and Bcl-xL:Bim. Bcl-xL:Bim shifts against Bcl-xL and Mcl-1 upon treatment. In this experiment, a shift away from the complex is detected when the sample is treated with BCLXL targeted BH3 mimetic (A1155463).

Mcl-1:Bim complex [4] = test: Heterodimer to monomer ratio by flow cytometry in UKE-1 cells (FIG. 18); assay type: cell-based; settings: A1155463 treated UKE-1 cells, detected with F05
Experimental: as §1

BCLXL: BIM = BCLXL: BIM (Homo sapiens, UniProt Q07817); test: PRIMAB intra-cellular immunofluorescent staining and flow cytometry in U266B1 cells (FIG. 19); settings: BCLXL primed U266B1 cells, HSBXB PRIMAB
Sequence of BCLXL: BIM (Q07817 whole entry): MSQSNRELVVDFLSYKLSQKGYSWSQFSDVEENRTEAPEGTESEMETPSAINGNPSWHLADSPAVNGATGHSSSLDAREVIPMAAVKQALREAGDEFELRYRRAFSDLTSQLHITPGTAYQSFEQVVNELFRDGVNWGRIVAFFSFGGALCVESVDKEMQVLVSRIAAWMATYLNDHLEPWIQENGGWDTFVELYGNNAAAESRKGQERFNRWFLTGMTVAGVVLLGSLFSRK
Experimental: Priming complexes in leukemia cells were measured by intra-cellular immunofluorescent staining with PRIMABs and detected by flow cytometry.

T1 sequence (P10415 whole entry, one chain of several): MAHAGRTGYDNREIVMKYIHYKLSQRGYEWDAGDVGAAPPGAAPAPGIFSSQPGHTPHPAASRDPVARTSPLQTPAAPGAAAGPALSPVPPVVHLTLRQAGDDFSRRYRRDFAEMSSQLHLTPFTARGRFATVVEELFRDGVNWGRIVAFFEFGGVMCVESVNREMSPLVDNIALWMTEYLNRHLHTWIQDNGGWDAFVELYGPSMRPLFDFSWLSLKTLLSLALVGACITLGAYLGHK

## CC1(C)CCC(CN2CCN(c3ccc(C(=O)NS(=O)(=O)c4ccc(NCC5CCOCC5)c([N+](=O)[O-])c4)c(Oc4cnc5[nH]ccc5c4)c3)CC2)=C(c2ccc(Cl)cc2)C1 [ABT-199]
BCL2:BIM complex [1]
  priming complex shift by PRIMAB readout: disruption of BCL2: BIM complex

## CN(CCO)CC[C@H](CSc1ccccc1)Nc1ccc(S(=O)(=O)NC(=O)c2ccc(N3CCC([C@@H](O)c4ccccc4-c4ccc(Cl)cc4)CC3)cc2)cc1S(=O)(=O)C(F)(F)F [AZD4320]
BCL2:BIM complex [2]
  ratio of complex/monomer signal: shift from the BCL2:BIM complex to the MCL-1:BIM complex

## CN(C)CC#Cc1ccc(OCCCc2sc(N3CCc4cccc(C(=O)Nc5nc6ccccc6s5)c4C3)nc2C(=O)O)c(F)c1 [A1155463]
Mcl-1:Bim complex [3]
  ratio of measured heterodimer to monomer: shift and “priming” to MCL1:BIM complex
Mcl-1:Bim complex [4]
  ratio of measured heterodimer to monomer: shift and “priming” to MCL1:BIM complex
BCLXL: BIM
  priming complex shift by PRIMAB readout: BCLXL: BIM shift
